Reference: US20250000896A1, “Xenon Gas for Use in the Treatment of Gliomas” (Universität Heidelberg, priority 2021, published 2025)

How the values were obtained:
Type in all cases: cell-based
U87MG glioma cells = assay: Colony formation assay (CFA) with U87MG glioma cells after irradiation; conditions: for mean survival fraction in relation to the control group: 50% Xe for 60 min after irradiation and/or 25 μM memantine, colonies counted after 14 days
Description: (§1) In radiobiological research, colony formation assay (CFA) represents an established method to evaluate the in-vitro-effects of radiation treatment (RT) alone or in combination with additional substances on cell survival and reproduction capability. To provide a method for investigation of modulating properties mediated by gaseous agents in combination with ionizing radiation treatment, a system to combine CFA with gas exposure before, during or after radiation treatment was designed. Subsequently CFA were performed with established glioma cell lines U87MG and U251, as well as cervical cancer-derived cell line HeLa investigating the effect of xenon gas exposure on cell survival after radiation treatment. Expression of AMPAR and NMDAR subunits was tested by immunofluorescence staining. In vitro colony formation assay (CFA) comparing surviving fractions of irradiated U87MG cells and U251 cells exposed to 50% Xe and/or treated with 25 μM of memantine to a control group were performed. Additionally, a CFA comparing surviving fractions of irradiated HeLa cells exposed to 50% Xe to a control group was implemented. CFA were carried out in triplets of T25-flasks for each irradiation dose of 0, 2, 4, 6 and 8 Gy in three (U87MG and HeLa) or four (U251) independent repetitions. U87MG and HeLa cells were cultured in Dulbecco's modified eagle's medium (DMEM; U87: Biochrom AG, Berlin, Germany; HeLa: Thermo Fisher Scientific, Waltham, US) and U251 cells were cultured in Gibco Roswell Park Memorial Institute (RPMI) 1640 medium+GlutaMAX™ (Thermo Fisher Scientific, Waltham, US). Cells were stored in an incubator (ambient air with additional 5% CO2) and split regularly before confluence. In preparation of CFA, cells were dissolved, counted, and distributed into T25-flasks starting with 1000 cells (U87MG), 100 cells (U251), or 200 cells (HeLa) per flask for non-irradiated groups increasing the cell count with irradiation dose to 1000, 2000, 5000, and 10.000 cells (U87MG), 200, 600, 2000, and 5000 cells (U251), or 400, 800, 2000, and 4000 cells (HeLa), respectively. Cells were allowed to attach for 14 to 16 h (U87MG), for 4 h (U251), or for 5.5 h (HeLa) and 108 μl of either memantine-hydrochloride 0.25 mg/ml (Sigma-Aldrich Corp., St. Louis, USA) or distilled water as placebo were added 60 min at U87MG and 90 min at U251 and HeLa prior to irradiation, resulting in 25 μM memantine-hydrochloride per flask. For irradiation, 15 flasks (5 triplets, each for 0, 2, 4, 6, 8 Gy) were placed alongside the margin of eight acrylic glass plates (thickness 1.0 cm) with two plates further added on top to balance secondary electrons. Vertical position to the gantry of a conventional linear accelerator (Elekta Synergy, Elekta AB, Stockholm, Sweden) was allocated by wall-mounted lasers marking the center of the flasks' caps membrane, horizontal position was validated by opening the linear accelerator's light field (32.0×32.0 cm) and by positioning the plates centrally inside the field. The triplet from the 0 Gy dose-group was removed immediately after placement (sham-irradiation) and exchanged with dummy T25-flasks filled with water. After delivery of 181.2 MU of 6 MeV photons, equivalent to an effective dose of 2 Gy, the 2 Gy-triplet was removed and replaced by dummy flasks. This process was repeated until a cumulative dose of 8 Gy for the last triplet was reached. Gas exposure was performed after the radiation treatment described above. The flasks were exposed to a preformed gas mixture for 60 minutes containing either 75% Xe, 20% O2 and 5% CO2 for the xenon group or a mixture with the 75% Xe-proportion replaced by nitrogen (N2) for the memantine group and the control group. […] After exposure, the flasks membrane caps were sealed with custom PVC-plugs and stored in a heat cabinet for 24 hours. Finally, the membrane caps' plugs were removed and the flasks were transferred into the 5% CO2-incubator remaining untouched for 13 days (U87MG), 10 days (U251), or 10 days (HeLa). […]

U251 glioma cells = assay: Colony formation assay (CFA) with U251 glioma cells after irradiation; conditions: 50% Xe for 60 min after irradiation and/or 25 μM memantine, colonies counted after 11 days
Description: as §1

[1] = system: HeLa cervical cancer cells; assay: Colony formation assay (CFA) with HeLa cervical cancer cells after irradiation; conditions: for mean survival fraction in relation to the control group: 50% Xe for 60 min after irradiation, colonies counted after 11 days
Description: In radiobiological research, colony formation assay (CFA) represents an established method to evaluate the in-vitro-effects of radiation treatment (RT) alone or in combination with additional substances on cell survival and reproduction capability.
To provide a method for investigation of modulating properties mediated by gaseous agents in combination with ionizing radiation treatment, a system to combine CFA with gas exposure before, during or after radiation treatment was designed. Subsequently CFA were performed with established glioma cell lines U87MG and U251, as well as cervical cancer-derived cell line HeLa investigating the effect of xenon gas exposure on cell survival after radiation treatment. Expression of AMPAR and NMDAR subunits was tested by immunofluorescence staining.
In vitro colony formation assay (CFA) comparing surviving fractions of irradiated U87MG cells and U251 cells exposed to 50% Xe and/or treated with 25 μM of memantine to a control group were performed. Additionally, a CFA comparing surviving fractions of irradiated HeLa cells exposed to 50% Xe to a control group was implemented. CFA were carried out in triplets of T25-flasks for each irradiation dose of 0, 2, 4, 6 and 8 Gy in three (U87MG and HeLa) or four (U251) independent repetitions.
U87MG and HeLa cells were cultured in Dulbecco's modified eagle's medium (DMEM; U87: Biochrom AG, Berlin, Germany; HeLa: Thermo Fisher Scientific, Waltham, US) and U251 cells were cultured in Gibco Roswell Park Memorial Institute (RPMI) 1640 medium+GlutaMAX™ (Thermo Fisher Scientific, Waltham, US). Cells were stored in an incubator (ambient air with additional 5% CO2) and split regularly before confluence. In preparation of CFA, cells were dissolved, counted, and distributed into T25-flasks starting with 1000 cells (U87MG), 100 cells (U251), or 200 cells (HeLa) per flask for non-irradiated groups increasing the cell count with irradiation dose to 1000, 2000, 5000, and 10.000 cells (U87MG), 200, 600, 2000, and 5000 cells (U251), or 400, 800, 2000, and 4000 cells (HeLa), respectively. Cells were allowed to attach for 14 to 16 h (U87MG), for 4 h (U251), or for 5.5 h (HeLa) and 108 μl of either memantine-hydrochloride 0.25 mg/ml (Sigma-Aldrich Corp., St. Louis, USA) or distilled water as placebo were added 60 min at U87MG and 90 min at U251 and HeLa prior to irradiation, resulting in 25 μM memantine-hydrochloride per flask.
For irradiation, 15 flasks (5 triplets, each for 0, 2, 4, 6, 8 Gy) were placed alongside the margin of eight acrylic glass plates (thickness 1.0 cm) with two plates further added on top to balance secondary electrons. Vertical position to the gantry of a conventional linear accelerator (Elekta Synergy, Elekta AB, Stockholm, Sweden) was allocated by wall-mounted lasers marking the center of the flasks' caps membrane, horizontal position was validated by opening the linear accelerator's light field (32.0×32.0 cm) and by positioning the plates centrally inside the field. The triplet from the 0 Gy dose-group was removed immediately after placement (sham-irradiation) and exchanged with dummy T25-flasks filled with water. After delivery of 181.2 MU of 6 MeV photons, equivalent to an effective dose of 2 Gy, the 2 Gy-triplet was removed and replaced by dummy flasks. This process was repeated until a cumulative dose of 8 Gy for the last triplet was reached.
Gas exposure was performed after the radiation treatment described above. The flasks were exposed to a preformed gas mixture for 60 minutes containing either 75% Xe, 20% O2 and 5% CO2 for the xenon group or a mixture with the 75% Xe-proportion replaced by nitrogen (N2) for the memantine group and the control group. […] After exposure, the flasks membrane caps were sealed with custom PVC-plugs and stored in a heat cabinet for 24 hours. Finally, the membrane caps' plugs were removed and the flasks were transferred into the 5% CO2-incubator remaining untouched for 13 days (U87MG), 10 days (U251), or 10 days (HeLa). […]

Row | SMILES | mean survival fraction in relation to the control group (U87MG glioma cells; radiation dose 0 Gy (sham)) [%] | mean survival fraction in relation to the control group (U87MG glioma cells; radiation dose 2 Gy) [%] | mean survival fraction in relation to the control group (U87MG glioma cells; radiation dose 4 Gy) [%] | mean survival fraction in relation to the control group (U87MG glioma cells; radiation dose 6 Gy) [%] | mean survival fraction in relation to the control group (U87MG glioma cells; radiation dose 8 Gy) [%] | mean survival fraction in relation to the control group (U251 glioma cells; radiation dose 0 Gy (sham)) [%] | mean survival fraction in relation to the control group (U251 glioma cells; radiation dose 2 Gy) [%] | mean survival fraction in relation to the control group (U251 glioma cells; radiation dose 4 Gy) [%] | mean survival fraction in relation to the control group (U251 glioma cells; radiation dose 6 Gy) [%] | mean survival fraction in relation to the control group (U251 glioma cells; radiation dose 8 Gy) [%] | impact of xenon exposure after irradiation on HeLa cell survival ([1]; 50% Xe after irradiation, except at a very high radiation dose level) | mean survival fraction in relation to the control group ([1]; radiation dose 0 Gy (sham)) [%] | mean survival fraction in relation to the control group ([1]; radiation dose 2 Gy) [%] | mean survival fraction in relation to the control group ([1]; radiation dose 4 Gy) [%] | mean survival fraction in relation to the control group ([1]; radiation dose 6 Gy) [%] | mean survival fraction in relation to the control group ([1]; radiation dose 8 Gy) [%] | difference in survival to the groups without added memantine (U87MG glioma cells; 25 μM memantine, 0 to 8 Gy, t-test)
1 | [Xe] [xenon] | 94.2 | 41.5 | 25.0 | 10.3 | 4.7 | 78.7 | 37.5 | 14.6 | 4.2 | 1.0 | no impact | 114.7 | 71.1 | 23.5 | 7.1 | 2.0 | 
2 | CC12CC3CC(C)(C1)CC(N)(C3)C2 [memantine] | 93.8 | 46.8 | 28.5 | 15.9 | 8.0 | 72.3 | 34.1 | 11.9 | 3.8 | 1.0 |  |  |  |  |  |  | no significant differences
